The RepoRT retention time repository (doi:10.1016/j.foodchem.2021.129757)
Where a name gives a salt, the structure may show the parent alone.

How the values were obtained:
Settings in all cases: stereoisomer not certain
[1] = RP, Waters ACQUITY UPLC HSS T3, 100 × 2.1 mm, 50 °C; A: water + 0.1% formic acid, pH 3; B: 30% methanol + 70% acetonitrile + 0.1% formic acid, pH 3; gradient (min/%B) 0/5 1/8 2/15 3/40 4/70 4.5/100 5/100 6.4/100 6.6/5 6.8/5 7/5
[2] = RP, Agilent ZORBAX Eclipse XDB-C18, 100 × 2.1 mm, 1.8 µm, 50 °C, 0.4 mL/min, estimated dead time 0.55 min; A: water + 0.1% formic acid, pH 3; B: methanol + 0.1% formic acid, pH 3; gradient (min/%B) 0/2 10/100 14.5/100 14.51/2 16.5/2
[3] = RP, Waters ACQUITY UPLC HSS T3, 100 × 2.1 mm, 1.8 µm, 30 °C, 0.4 mL/min, estimated dead time 0.55 min; A: water + 0.1% formic acid, pH 3; B: acetonitrile + 0.1% formic acid, pH 3; gradient (min/%B) 0/0 2/0 15/100 22/100 22.1/0 26/0
[4] = RP, Waters ACQUITY UPLC BEH C18, 100 × 2.1 mm, 1.7 µm, 65 °C, 0.4 mL/min, estimated dead time 0.55 min; A: water + 0.1% formic acid, pH 3; B: 80% acetonitrile + 20% acetone + 0.1% formic acid, pH 3; gradient (min/%B) 0/0 5/100 5.5/0 6/0
[5] = RP, Phenomenex Synergi Hydro-RP, 250 × 2 mm, 4 µm, 25 °C, 0.2 mL/min, estimated dead time 2.5 min; A: water + 0.1% formic acid, pH 3; B: acetonitrile + 0.1% formic acid, pH 3; gradient (min/%B) 0/0.5 7/0.5 12/12.5 25/16.3 47/35 48/65 50/65 50.1/0.5
[6] = RP, Agilent ZORBAX RRHD Eclipse Plus C18, 50 × 2.1 mm, 1.8 µm, 30 °C, 0.4 mL/min, estimated dead time 0.28 min; A: water + 0.1% formic acid, pH 3; B: acetonitrile + 0.1% formic acid, pH 3; gradient (min/%B) 0/1 5/10 8/25 9.1/99 10/99 12/1
[7] = RP, Agilent ZORBAX RRHD Eclipse Plus C18, 50 × 2.1 mm, 1.8 µm, 30 °C, 0.4 mL/min, estimated dead time 0.28 min; A: water + 0.1% formic acid, pH 3; B: acetonitrile + 0.1% formic acid, pH 3; gradient (min/%B) 0/1 5/10 8/25 9.1/99 10/99 12/99

LC retention time [1] [min] | LC retention time [4] [min] | Structure (SMILES) | also measured
2 |  | CC(C)(CO)C(O)C(=O)NCCC(=O)O (racemic) [DL-Pantothenic acid] | LC retention time [2]: 2.42 min
2.01 | 1.45 | Cn1c(=O)c2[nH]c(=O)[nH]c2n(C)c1=O [1,3-Dimethyluric acid] | LC retention time [3]: 7.03 min
1.27 | 1.29 | Cn1c(=O)[nH]c2[nH]c(=O)[nH]c2c1=O [1-Methyluric acid] | 
3.4 | 1.96 | Cc1ccccc1C(=O)NCC(=O)O [2-Methylhippuric acid] | 
1.54 |  | Cn1c(=O)[nH]c(=O)c2c1[nH]c(=O)n2C [3,7-Dimethyluric acid] | 
3.62 | 2.35 | O=C(O)Cc1c[nH]c2ccccc12 [3-Indoleacetic acid] | LC retention time [2]: 5 min
3.53 | 2.14 | O=C(O)C(O)Cc1c[nH]c2ccccc12 (stereo unspecified) [3-Indolelactic acid] | 
2.67 | 1.68 | O=S(=O)(O)Oc1c[nH]c2ccccc12 [3-Indoxyl sulfate] | 
1.45 | 1.3 | Cn1c(=O)[nH]c(=O)c2[nH]cnc21 [3-Methylxanthine] | 
2.86 | 1.61 | O=C(O)Cc1c[nH]c2ccc(O)cc12 [5-Hydroxyindole-3-acetic acid] | 
1.25 |  | Cn1cnc2[nH]c(=O)[nH]c(=O)c21 [7-Methylxanthine] | 
0.681 |  | CC(=O)Nc1c(N)[nH]c(=O)n(C)c1=O [AAMU] | 
0.601 |  | O=C1OC(C(O)CO)C(O)=C1O (stereo unspecified) [Ascorbic acid] | 
1.54 | 1.37 | CC(O)C1NC(=O)C2CCCN2C1=O (stereo unspecified) [Cyclo(Pro-Thr)] | 
3.1 | 1.88 | CC(C)C1NC(=O)C2CCCN2C1=O (stereo unspecified) [Cyclo(Pro-Val)] | LC retention time [3]: 8.07 min
3.6 |  | COc1ccc(-c2cc(=O)c3c(O)cc(OC4OC(C(=O)O)C(O)C(O)C4O)cc3o2)cc1O (stereo unspecified) [Diosmetin 7-glucuronide] | 
3.56 | 2.13 | O=C(O)CNC(=O)C=Cc1c[nH]c2ccccc12 [Indole-3-acryloylglycine] | 
2.56 | 1.48 | Cn1c(=O)[nH]c2ncn(C)c2c1=O [Paraxanthine] | LC retention time [3]: 7.53 min; LC retention time [2]: 2.93 min
2.61 | 0.821 | Cc1ncc(CO)c(C=O)c1O [Pyridoxal] | LC retention time [2]: 1.35 min
2.57 |  | O=C(O)c1cc(=O)c2cccc(O)c2[nH]1 [Xanthurenic acid] | 
3.44 | 2 | Cc1cccc(OS(=O)(=O)O)c1 [m-Cresol sulfate] | 
3.38 | 1.93 | Cc1ccccc1OS(=O)(=O)O [o-Cresol sulfate] | 
3.38 | 1.99 | Cc1ccc(OS(=O)(=O)O)cc1 [p-Cresol sulfate] | 

Continued, molecule first:

Structure (SMILES) | LC retention time [1] [min] | LC retention time [4] [min] | also measured
O=C(O)Cc1ccccc1O [2-Hydroxyphenylacetic acid] | 3.4 |  | LC retention time [3]: 9.13 min; LC retention time [2]: 3.82 min
COc1ccccc1C=CC(=O)O [2-Methoxycinnamic acid] |  |  | LC retention time [5]: 50 min
O=C(O)CCc1ccc(O)cc1O [3-(2,4-dihydroxyphenyl)propionic acid] | 3.02 |  | 
O=C(O)CCc1cc(O)cc(O)c1 [3-(3,5-Dihydroxyphenyl)propanoic acid] | 2.66 |  | 
O=C(OC1OC(C(=O)O)C(O)C(O)C1O)c1c[nH]c2ccccc12 (stereo unspecified) [3-Indole carboxylic acid glucuronide] | 3.36 | 1.89 | 
O=C(O)C(O)Cc1ccccc1 (stereo unspecified) [3-Phenyllactic acid] |  |  | LC retention time [5]: 27.2 min
COc1cccc(C=CC(=O)O)c1 [3-methoxycinnamic acid] |  |  | LC retention time [5]: 49.1 min
COc1ccc(C=CC(=O)O)cc1 [4-methoxycinnamic acid] |  |  | LC retention time [5]: 48 min
C=CCS(=O)CC(N)C(=O)O (stereo unspecified) [Alliin] | 0.638 |  | 
O=C(O)CCCCCCCC(=O)O [Azelaic acid] | 3.63 | 2.33 | LC retention time [2]: 5.74 min
O=C(O)C1OC(Oc2ccccc2O)C(O)C(O)C1O (stereo unspecified) [Catechol-O-1-glucuronide] | 2.65 |  | LC retention time [6]: 4.38 min; LC retention time [7]: 3.09 min
NCCc1ccc(OS(=O)(=O)O)c(O)c1 [Dopamine 4-O-sulfate] | 0.606 | 1.3 | 
NCCc1ccc(O)c(O)c1 [Dopamine] | 0.706 |  | LC retention time [3]: 1.3 min
CS(=O)CCCC(=NOS(=O)(=O)O)SC1OC(CO)C(O)C(O)C1O (stereo unspecified) [Glucoiberin] |  |  | LC retention time [5]: 4.44 min
C=CCCC(=NOS(=O)(=O)O)SC1OC(CO)C(O)C(O)C1O (stereo unspecified) [Gluconapin] |  |  | LC retention time [5]: 12.7 min
O=S(=O)(O)ON=C(CCc1ccccc1)SC1OC(CO)C(O)C(O)C1O (stereo unspecified) [Gluconasturtiin] |  |  | LC retention time [5]: 19.3 min
CS(=O)CCCCC(=NOS(=O)(=O)O)SC1OC(CO)C(O)C(O)C1O (stereo unspecified) [Glucoraphanin] |  |  | LC retention time [5]: 6.23 min
O=C(O)C1OC(Oc2ccc(O)cc2)C(O)C(O)C1O (stereo unspecified) [Hydroquinone glucuronide] | 0.909 |  | 
O=C(O)C1CC(O)CN1 (stereo unspecified) [Hydroxyproline] | 0.466 |  | 
CS(=O)CCCN=C=S (stereo unspecified) [Iberin] | 3.25 |  | 

Structure (SMILES) | LC retention time [1] [min] | LC retention time [4] [min] | also measured
O=C(Cc1c[nH]c2ccccc12)OC1OC(C(=O)O)C(O)C(O)C1O (stereo unspecified) [Indole-3-acetic acid glucuronide] | 3.46 |  | 
OCC1OC(Oc2c[nH]c3ccccc23)C(O)C(O)C1O (stereo not drawn) [Indoxyl beta-d-glucoside] | 2.92 |  | 
O=C(O)C1OC(Oc2c[nH]c3ccccc23)C(O)C(O)C1O (stereo not drawn) [Indoxyl beta-d-glucuronide] | 2.94 | 1.73 | 
O=c1c(OC2OC(CO)C(O)C(O)C2O)c(-c2ccc(O)cc2)oc2cc(O)cc(O)c12 [Kaempferol 3-O-D-galactoside] |  |  | LC retention time [5]: 37.2 min
c1coc(CNc2ncnc3nc[nH]c23)c1 [Kinetin] | 3.03 | 1.7 | 
NC(=O)NCCC[C@H](N)C(=O)O [L-Citrulline] | 0.483 |  | 
CC(=O)CCC(=O)O [Levulinic acid] | 1.46 | 1.4 | 
CN(C)CC(=O)O [N,N-Dimethylglycine] | 0.49 |  | 
O=C(O)c1cccnc1 [Niacin] |  |  | LC retention time [5]: 5.51 min
O=C(O)c1ccc[nH]1 [Pyrrole-2-carboxylic acid] | 2.61 | 1.68 | 
O=C(O)CC(=O)OCC1OC(Oc2c(-c3ccc(O)c(O)c3)oc3cc(O)cc(O)c3c2=O)C(O)C(O)C1O (stereo unspecified) [Quercetin 3-O-malonylglucoside] |  |  | LC retention time [5]: 37 min
CC1OC(OCC2OC(Oc3c(-c4ccc(O)c(O)c4)oc4cc(OC5OC(CO)C(O)C(O)C5O)cc(O)c4c3=O)C(O)C(O)C2O)C(O)C(O)C1O (stereo unspecified) [Quercetin 3-O-rutinoside-7-O-glucoside] |  |  | LC retention time [5]: 20.6 min
CC(=O)OCC1OC(Oc2c(-c3ccc(O)c(O)c3)oc3cc(O)cc(O)c3c2=O)C(O)C(O)C1O (stereo unspecified) [Quercetin-3-O-(6-acetylglucoside)] |  |  | LC retention time [5]: 38.8 min
CC1OC(OCC2OC(Oc3c(-c4ccc(O)cc4)oc4cc(OC5OC(C)C(O)C(O)C5O)cc(O)c4c3=O)C(O)C(O)C2O)C(O)C(O)C1O (stereo unspecified) [Robinin] |  |  | LC retention time [5]: 31.8 min
C=CCC(=NOS(=O)(=O)O)SC1OC(CO)C(O)C(O)C1O (stereo unspecified) [Sinigrin] |  |  | LC retention time [5]: 5.52 min
O=C(C=Cc1ccc(O)cc1)OCC1OC(Oc2c(-c3ccc(O)cc3)oc3cc(O)cc(O)c3c2=O)C(O)C(O)C1O (stereo unspecified) [Tiliroside] |  |  | LC retention time [5]: 47 min
O=c1[nH]c(=O)c2[nH]c(=O)[nH]c2[nH]1 [Uric acid] |  |  | LC retention time [5]: 7.67 min
COc1ccc(CC(=O)O)cc1OC [homoveratric acid] |  |  | LC retention time [5]: 32.5 min
Cc1ccc(OC2OC(C(=O)O)C(O)C(O)C2O)cc1 (stereo unspecified) [p-Cresol glucuronide] | 3.44 | 2.01 | 
O=C(O)C(O)Cc1ccc(O)cc1 (stereo unspecified) [p-Hydroxyphenyllactic acid] | 2.66 |  | LC retention time [2]: 2.73 min
